One series deals with CHO-K1 cells. Put plainly: Toxicity in RRA (loss of luciferase signal). Conditions: toxicity = loss of signal (<0.75 fold increase).
In another series the test system is beta amyloid production. Put plainly: Repressor Release Assay (RRA). Conditions: read-out: APPI Fold Increase; for fold induction at 20 µg/mL: Conc 20 μg/ml; for fold induction at 10 µg/mL: Conc 10 μg/ml; for fold induction at 3 µg/mL: Conc 3 μg/ml. The format is cell-based. The gist of the method:
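Read-out is luciferase luminescence (RLU) after 36-48 h duplicate compound exposure of transfected CHO-K1 cells. These cells carry transiently introduced APP-lacI and pRSVO-luc DNA. Diluent control was 25 mM Hepes/1% DMSO; toxicity recorded as binary score (1 non-toxic, 0 toxic).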

Setting [1] is: luciferase activity over diluent control.
Setting [2] is: Conc 20 μg/ml, 1=non-toxic, 0=toxic.
Setting [3] is: luciferase activity (RLU) over diluent control.

What is called melting point is the temperature of the solid-liquid transition.

Where two headings read alike, the source gives them in different places.

Description for CHO-K1 cells: The beta amyloid inhibitory activity of the compounds of the present invention was determined using the Repressor Release Assay (RRA).
“Fold Increase” refers to the amount of luciferase activity (measured in relative light units) over diluent control. “SEM” refers to the standard error of the mean for fold increase.

For the compound `CC[C@H](C)[C@@H](CO)NS(=O)(=O)c1ccc(Cl)c(N)c1` [Example 14, 3-Amino-4-chloro-N-[(1S,2S)-1-(hydroxymethyl)-2-methylbutyl]benzenesulfonamide], the melting point fell in the range of 89 to 92 °C. In the series on CHO-K1 cells (Conc 20 μg/ml), the “(%)APPI Toxicity” value is 1 (1=non-toxic). Besides, the fold induction at 20 µg/mL in the series on beta amyloid production (setting [1]) was determined as 1.9.

`CC(C)[C@@H](CO)NS(=O)(=O)c1ccc(Br)cc1` [Example 275, 4-Bromo-N-[(1S)-1-(hydroxymethyl)-2-methylpropyl]benzenesulfonamide]: the melting point was in the range of 89 to 94 °C. Also, in the series on CHO-K1 cells (Conc 20 μg/ml), the “(%)APPI Toxicity” value is 1 (1=non-toxic). Moreover, the fold induction at 20 µg/mL in the series with beta amyloid production (setting [1]) was determined as 2.

In turn, `CC[C@H](C)[C@@H](CO)NS(=O)(=O)c1ccc(I)cc1` [Example 276, 4-Iodo-N-[(1S,2S)-1-(hydroxymethyl)-2-methylbutyl]benzenesulfonamide] registered a melting point of 118 to 120 °C. The “(%)APPI Toxicity” value with CHO-K1 cells (Conc 20 μg/ml) is reported as 1 (1=non-toxic). In addition, the fold induction at 20 µg/mL with beta amyloid production (setting [1]) amounted to 2.

`CC(C)[C@@H](CO)NS(=O)(=O)c1ccc(Cl)cc1` [Example 274, 4-Chloro-N-[(1S)-1-(hydroxymethyl)-2-methylpropyl]benzenesulfonamide] returned a melting point of 83 to 85 °C. The “(%)APPI Toxicity” value in the series with CHO-K1 cells (Conc 20 μg/ml) was 1 (1=non-toxic). In addition, in the series on beta amyloid production (setting [1]), the fold induction at 20 µg/mL turned out to be 2.1.

Turning to `O=S(=O)(N[C@H](CO)C1CCCCC1)c1ccc(Cl)cc1` [Example 272, 4-Chloro-N-[(1S)-1-cyclohexyl-2-hydroxyethyl]benzenesulfonamide], the melting point lay in the range of 115 to 118 °C. In the series on CHO-K1 cells (Conc 20 μg/ml), the “(%)APPI Toxicity” value was 1 (1=non-toxic). Besides, the fold induction at 20 µg/mL with beta amyloid production (setting [1]) came to 2.3.

Compound `CC(C)(C)[C@@H](CO)NS(=O)(=O)c1ccc(Cl)cc1` [Example 277, 4-Chloro-N-[(1S)-1-(hydroxymethyl)-2,2-dimethylpropyl]benzenesulfonamide] came in with a melting point of 128 to 130 °C. Moreover, in the series on CHO-K1 cells (Conc 20 μg/ml), the “(%)APPI Toxicity” value is on record as 1 (1=non-toxic). Also, in the series on beta amyloid production (setting [1]), the fold induction at 20 µg/mL was determined as 1.5.

For `O=S(=O)(N[C@H](CO)c1ccccc1)c1ccc(Cl)cc1` [Example 273, 4-Chloro-N-[(1S)-2-hydroxy-1-phenylethyl]benzenesulfonamide], the melting point lay in the range of 127 to 128 °C. Also, the “(%)APPI Toxicity” value in the series on CHO-K1 cells (Conc 20 μg/ml) was 1 (1=non-toxic). The fold induction at 20 µg/mL with beta amyloid production (setting [1]) is 1.5.

In the case of `CCC(O)[C@@H](NS(=O)(=O)c1ccc(Cl)cc1)[C@@H](C)CC` (stereo partly drawn) [Example 176, 4-chloro-N-{(1S)-2-hydroxy-1-[(1S)-1-methylpropyl]butyl}benzenesulfonamide], the “(%)APPI Toxicity” value in the series on CHO-K1 cells (Conc 10 μg/ml) is 1 (1=non-toxic). For the same compound, the fold induction at 10 µg/mL in the series on beta amyloid production (setting [1]) stood at 2.63.

Turning to `CC[C@H](C)[C@@H](CO)NS(=O)(=O)c1ccc(Cl)c2nnoc12` [Example 4, 4-chloro-N-[(1S,2S)-1-(hydroxymethyl)-2-methylbutyl]-1,2,3-benzoxadiazole-7-sulfonamide], in the series on CHO-K1 cells (Conc 20 μg/ml), the “(%)APPI Toxicity” value was 1 (1=non-toxic). Also, the fold induction at 20 µg/mL in the series with beta amyloid production (setting [1]) came to 1.5.

On to `C=CCC(O)[C@@H](NS(=O)(=O)c1ccc(F)cc1)[C@@H](C)CC` (stereo partly drawn) [Example 134, 4-fluoro-N-{(1S)-2-hydroxy-1-[(1S)-1-methylpropyl]-4-pentenyl}benzenesulfonamide], for which the “(%)APPI Toxicity” value with CHO-K1 cells (Conc 3 μg/ml) is reported as 1 (1=non-toxic). The “(%)APPI Toxicity” value with CHO-K1 cells (Conc 10 μg/ml) is on record as 1 (1=non-toxic). Besides, in the series on beta amyloid production (setting [1]), the fold induction at 3 µg/mL was 1.5 and the fold induction at 10 µg/mL was found to be 3.

In the case of `O=S(=O)(N[C@H](CO)c1ccccc1)c1ccccc1F` [Example 112, 2-fluoro-N-[(1S)-2-hydroxy-1-phenylethyl]benzene sulfonamide], the “(%)APPI Toxicity” value in the series on CHO-K1 cells (Conc 20 μg/ml) is recorded as 1 (1=non-toxic). The fold induction at 20 µg/mL in the series on beta amyloid production (setting [1]) stood at 1.8.

Turning to `CCC[C@H](CC(C)C)[C@@H](CO)NS(=O)(=O)c1ccc(Br)cc1` [Example 78, 4-bromo-N-[(1S,2R)-1-(hydroxymethyl)-4-methyl-2-propylpentyl]benzenesulfonamide], the “(%)APPI Toxicity” value in the series with CHO-K1 cells (setting [2]) is 1 (1=non-toxic). The fold induction at 20 µg/mL in the series with beta amyloid production (setting [3]) was determined as 4.4.

In the case of `COc1ccc([C@@H](C)[C@@H](CO)NS(=O)(=O)c2ccc(Br)cc2)cc1` [Example 71, 4-bromo-N-[(1S,2R)-1-(hydroxymethyl)-2-(4-methoxyphenyl)propyl]benzenesulfonamide], the “(%)APPI Toxicity” value in the series on CHO-K1 cells (setting [2]) is on record as 1 (1=non-toxic). Further, the fold induction at 20 µg/mL in the series on beta amyloid production (setting [3]) is 1.9.

With `CC[C@H](C)[C@H](NS(=O)(=O)c1cccc(Cl)c1)C(O)C=C(C)C` (stereo partly drawn) [Example 197, 3-chloro-N-{(1S)-2-hydroxy-4-methyl-1-[(1S)-1-methylpropyl]-3-pentenyl}benzenesulfonamide], in the series on CHO-K1 cells (Conc 10 μg/ml), the “(%)APPI Toxicity” value was 1 (1=non-toxic). Also, in the series with beta amyloid production (setting [1]), the fold induction at 10 µg/mL was 1.54.

In the case of `CC[C@H](C)[C@@H](CO)NS(=O)(=O)c1ccc(Br)cc1` [Example 98, 4-bromo-N-[(1S,2S)-1-(hydroxymethyl)-2-methylbutyl]-benzenesulfonamide], the “(%)APPI Toxicity” value in the series with CHO-K1 cells (Conc 3 μg/ml), with CHO-K1 cells (Conc 10 μg/ml) and with CHO-K1 cells (Conc 20 μg/ml) was 1 (1=non-toxic) throughout. The fold induction at 3 µg/mL in the series with beta amyloid production (setting [1]) amounted to 1.79.

As for `CCC[C@H](CC)[C@@H](CO)NS(=O)(=O)c1ccc(Cl)cc1` [Example 55, 4-chloro-N-[(1S,2S)-2-ethyl-1-(hydroxymethyl)pentyl]benzenesulfonamide], the “(%)APPI Toxicity” value in the series on CHO-K1 cells (setting [2]) is recorded as 1 (1=non-toxic). Moreover, in the series with beta amyloid production (setting [3]), the fold induction at 20 µg/mL came out at 5.6.

`CC[C@H](CC(C)C)[C@@H](CO)NS(=O)(=O)c1ccc(Cl)cc1` [Example 53, 4-chloro-N-[(1S,2R)-2-ethyl-1-(hydroxymethyl)-4-methylpentyl]benzenesulfonamide]: the “(%)APPI Toxicity” value in the series on CHO-K1 cells (setting [2]) was 1 (1=non-toxic). For the same compound, the fold induction at 20 µg/mL with beta amyloid production (setting [3]) came out at 5.2.

In the case of `CC[C@H](C)[C@@H](CO)NS(=O)(=O)c1cc(Cl)ccc1OC` [Example 6, 5-chloro-N-[(1S,2S)-1-(hydroxymethyl)-2-methylbutyl]-2-methoxybenzenesulfonamide], the “(%)APPI Toxicity” value in the series on CHO-K1 cells (Conc 20 μg/ml) is recorded as 1 (1=non-toxic). Besides, in the series with beta amyloid production (setting [1]), the fold induction at 20 µg/mL came to 1.7.
